Assay [1] has as its target wt (SH2-WT/BT2-WT) (Zea mays, UniProt P55241+Q947C0). To be noted: read-out: ATP Km (absence of 3-PGA). An excerpt:
(§1) Activity in the absence of the activator 3PGA was examined. While 3PGA is a noted activator for plant AGPase, the mechanism of activation differs for the various AGPases. […] Thus, the term “activation fold” in the literature is merely an activity reported at single fixed substrate concentrations.
(§2) The small subunit mutant, MP, contains the first 198 amino acids of the small subunit of the maize endosperm enzyme and the last 277 amino acids from the potato tuber enzyme resulting in thirty-three amino acid sites that differ from the maize endosperm enzyme ([Cross et al., 2004]).

The target in assay [2] is T1, E123G, R331K, K402R (BT2-BF) (Zea mays, UniProt P55241+Q947C0, E123G/R331K/K402R).
T1 construct: BT2-BF with wild type SH2 (SH2-WT/BT2-BF), E. coli, purified
T1 sequence (Q947C0 1-475 E123G/R331K/K402R): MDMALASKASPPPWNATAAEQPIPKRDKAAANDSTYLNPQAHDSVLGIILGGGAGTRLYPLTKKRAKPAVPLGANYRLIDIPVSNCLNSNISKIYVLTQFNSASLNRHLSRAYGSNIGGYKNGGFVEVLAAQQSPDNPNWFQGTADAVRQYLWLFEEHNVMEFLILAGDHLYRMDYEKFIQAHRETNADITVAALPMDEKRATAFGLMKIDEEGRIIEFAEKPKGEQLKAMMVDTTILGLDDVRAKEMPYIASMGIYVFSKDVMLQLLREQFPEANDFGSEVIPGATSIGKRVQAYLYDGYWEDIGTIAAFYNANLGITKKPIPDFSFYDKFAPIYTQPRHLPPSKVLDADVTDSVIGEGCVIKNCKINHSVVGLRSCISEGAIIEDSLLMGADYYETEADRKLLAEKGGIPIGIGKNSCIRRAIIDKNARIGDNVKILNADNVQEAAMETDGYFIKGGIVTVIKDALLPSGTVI
T1 sequence (P55241 46-516): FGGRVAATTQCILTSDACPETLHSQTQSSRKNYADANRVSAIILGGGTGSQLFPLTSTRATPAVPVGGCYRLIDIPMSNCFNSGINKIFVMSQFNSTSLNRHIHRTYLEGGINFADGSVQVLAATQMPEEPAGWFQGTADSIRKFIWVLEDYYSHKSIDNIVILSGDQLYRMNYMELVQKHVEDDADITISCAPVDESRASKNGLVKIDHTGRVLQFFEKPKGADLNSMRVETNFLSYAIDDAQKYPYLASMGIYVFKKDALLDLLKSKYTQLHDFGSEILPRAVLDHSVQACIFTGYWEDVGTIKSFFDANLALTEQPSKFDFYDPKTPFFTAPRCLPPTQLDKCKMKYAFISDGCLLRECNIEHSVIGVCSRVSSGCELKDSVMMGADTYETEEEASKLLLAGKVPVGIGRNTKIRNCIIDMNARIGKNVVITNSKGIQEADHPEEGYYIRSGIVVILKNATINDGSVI
As to the kind of experiment: Initial-rate assay without 3-PGA, ATP and G-1-P both varied (0.01-10 mM and 0.1-25 mM), global fit to a sequential mechanism. Type of assay: biochemical. To be noted: read-out: ATP Km (absence of 3-PGA).
Description: as §1, §2

For assay [3], the target named is T2, SH2-E (Zea mays, UniProt P55241+Q947C0, N131R/T142F/A160T/Q261S/A396S/V416I/C424V/S444A).
T2 construct: SH2-E with wild type BT2 (SH2-E/BT2-WT), E. coli, purified
T2 sequence (Q947C0 1-475): T1 sequence (Q947C0 1-475 E123G/R331K/K402R) with G123E, K331R, R402K
T2 sequence (P55241 46-516 N131R/T142F/A160T/Q261S/A396S/V416I/C424V/S444A): T1 sequence (P55241 46-516) with N86R, T97F, A115T, Q216S, A351S, V371I, C379V, S399A
The description is as above. To be noted: read-out: ATP Km (absence of 3-PGA). Type of assay: biochemical.
Description: as §1, §2

Assay [4] concerns the target T3, SH2-ISM/BT2-BF (Zea mays, UniProt P55241+Q947C0, Q96G/E123G/D161G/R331K/K402R/A443R).
T3 construct: SH2-ISM co-expressed with BT2-BF, E. coli, purified
T3 sequence (Q947C0 1-475 E123G/R331K/K402R): T1 sequence (Q947C0 1-475 E123G/R331K/K402R)
T3 sequence (P55241 46-516 Q96G/D161G/A443R): T1 sequence (P55241 46-516) with Q51G, D116G, A398R
Described as above. The format is biochemical. To be noted: read-out: ATP Km (absence of 3-PGA).
Description: as §1, §2

In assay [5] the target is T2, SH2-E. The assay can be described thus: Pi inhibition study without 3-PGA, ATP varied (0.1-3 mM) at fixed Pi levels (10-30 mM) and sub-saturating G-1-P (1 mM), fit to mixed-type inhibition equations. Type of assay: biochemical. To be noted: read-out: Km (mM), varied substrate ATP, Pi inhibition in the absence of 3-PGA.
Description: Pi inhibition was carried out in both the presence and absence of 3-PGA with the Pi and substrate concentrations listed below.
Pi inhibition patterns in the presence and absence of 3PGA were also determined. Pi inhibition patterns were obtained by varying one substrate at several fixed concentrations of Pi, while holding the co-substrate at constant sub-saturating levels.

The structures appear in SMILES notation. Positions count from the first letter of the chain named.

Chain of wt (SH2-WT/BT2-WT) (Q947C0 1-475, one chain of several): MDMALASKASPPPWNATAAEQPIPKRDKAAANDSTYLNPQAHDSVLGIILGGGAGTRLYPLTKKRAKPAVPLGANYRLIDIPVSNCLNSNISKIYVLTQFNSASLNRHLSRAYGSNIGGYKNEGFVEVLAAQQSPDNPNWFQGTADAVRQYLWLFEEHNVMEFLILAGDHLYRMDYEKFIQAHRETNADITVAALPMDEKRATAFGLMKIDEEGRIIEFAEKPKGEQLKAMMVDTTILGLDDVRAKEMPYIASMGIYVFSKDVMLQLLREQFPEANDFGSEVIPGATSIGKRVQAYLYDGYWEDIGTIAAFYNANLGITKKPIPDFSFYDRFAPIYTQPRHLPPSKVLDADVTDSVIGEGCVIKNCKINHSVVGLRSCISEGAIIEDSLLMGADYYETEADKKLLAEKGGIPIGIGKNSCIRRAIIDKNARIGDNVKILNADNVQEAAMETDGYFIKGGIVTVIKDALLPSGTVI

The Km is the concentration of substrate that gives half-maximal velocity. Regarding `Nc1ncnc2c1ncn2[C@@H]1O[C@H](COP(=O)(O)OP(=O)(O)OP(=O)(O)O)[C@@H](O)[C@H]1O` [ATP, adenosine 5'-triphosphate], the Michaelis constant (Km) in assay [1] turned out to be 4 mM; in assay [2], 300 ± 250 µM; in assay [3], 2.5 ± 0.43 mM; in assay [4] it was 510 ± 100 µM; in assay [5], 0.97 ± 0.081 mM.

The values above are taken from article PMC6300691, “Enhancement of Heat Stability and Kinetic Parameters of the Maize Endosperm ADP-Glucose Pyrophosphorylase by Mutagenesis of Amino Acids in the Small Subunit With High B Factors” (Frontiers in Plant Science, 2018).
